Results as given in the supplement of paper PMC5908809.

Assays:
[1] = system: normal NK cells expanded with K562-aAPC; assay: percent inhibition of viability; higher = more inhibition; conditions: 72 h, IL-2 2.5 ng/mL
Protocol: (§1)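 Drug sensitivity and resistance testing on K562-aAPC-expanded normal NK cells: 5 concentrations (10-fold steps over a 10,000-fold range), 72 h at 37 °C, viability by CellTiter-Glo normalised to DMSO and benzethonium chloride controls; DSS from the fitted curve.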

[2] = system: DERL-7 (IL-2 2.5 ng/mL); assay: as above; conditions: 72 h
[3] = system: IMC-1 (IL-2 20 ng/mL); assay: as above; conditions: 72 h
[4] = system: KAI3 (IL-2 2.5 ng/mL); assay: as above; conditions: 72 h
[5] = system: KHYG-1 (IL-2 2.5 ng/mL); assay: as above; conditions: 72 h
[6] = system: NK-92 (IL-2 2.5 ng/mL); assay: as above; conditions: 72 h
[7] = system: NK-YS (IL-2 2.5 ng/mL); assay: as above; conditions: 72 h
[8] = system: NKL (IL-2 2.5 ng/mL); assay: as above; conditions: 72 h
[9] = system: SNK-6 (IL-2 2.5 ng/mL); assay: as above; conditions: 72 h
[10] = system: YT (IL-2 2.5 ng/mL); assay: as above; conditions: 72 h
[11] = system: normal primary NK cells, pool 1 (3 donors) (IL-2 2.5 ng/mL); assay: as above; conditions: 72 h
[12] = system: normal primary NK cells, pool 1 (3 donors), resting (IL-2 0 ng/mL); assay: as above; conditions: 72 h
[13] = system: normal primary NK cells, pool 2 (3 donors) (IL-2 2.5 ng/mL); assay: as above; conditions: 72 h
[14] = system: normal primary NK cells, pool 3 (3 donors) (IL-2 2.5 ng/mL); assay: as above; conditions: 72 h
[15] = system: normal NK cells expanded with K562-aAPC; assay: drug sensitivity score (DSS) (DSS units); higher = more sensitive; extreme values may be limits of the assay; conditions: 72 h; IL-2 2.5 ng/mL
Protocol: as §1

[16] = system: DERL-7 (IL-2 2.5 ng/mL); assay: as above; conditions: 72 h
[17] = system: IMC-1 (IL-2 20 ng/mL); assay: as above; conditions: 72 h
[18] = system: KAI3 (IL-2 2.5 ng/mL); assay: as above; conditions: 72 h
[19] = system: KHYG-1 (IL-2 2.5 ng/mL); assay: as above; conditions: 72 h
[20] = system: NK-92 (IL-2 2.5 ng/mL); assay: as above; conditions: 72 h
[21] = system: NK-YS (IL-2 2.5 ng/mL); assay: as above; conditions: 72 h
[22] = system: NKL (IL-2 2.5 ng/mL); assay: as above; conditions: 72 h
[23] = system: SNK-6 (IL-2 2.5 ng/mL); assay: as above; conditions: 72 h
[24] = system: YT (IL-2 2.5 ng/mL); assay: as above; conditions: 72 h
[25] = system: normal primary NK cells, pool 1 (3 donors) (IL-2 2.5 ng/mL); assay: as above; conditions: 72 h
[26] = system: normal primary NK cells, pool 1 (3 donors), resting (IL-2 0 ng/mL); assay: as above; conditions: 72 h
[27] = system: normal primary NK cells, pool 2 (3 donors) (IL-2 2.5 ng/mL); assay: as above; conditions: 72 h
[28] = system: normal primary NK cells, pool 3 (3 donors) (IL-2 2.5 ng/mL); assay: as above; conditions: 72 h

CC(C)C[C@@H](C(=O)N[C@H](C(=O)OC1CCCC1)c1ccccc1)[C@H](O)C(=O)NO [Tosedostat] (max concentration tested 10000 nM)
percent inhibition of viability [%]
Conditions | 1 nM | 10 nM | 100 nM | 1000 nM | 10000 nM
[1] | -1.88 | 6.85 | 7.57 | 15.4 | 28.1
[2] | 0.91 | 28.1 | 38.8 | 57.2 | 60.4
[3] | 1.56 | 3.44 | 2.86 | -8.8 | 34.8
[4] | -9.18 | -2.01 | 1.91 | 5.58 | 19.7
[5] | -2.21 | -0.34 | 2.84 | 38.9 | 56
[6] | -7.95 | -5.73 | 1.42 | 28.5 | 39.5
[7] | 1.05 | 7.39 | 20.1 | 32.9 | 43.8
[8] | 2.1 | 17 | 15 | 11.9 | 77.3
[9] | 15.8 | -24.2 | -35 | -26.7 | -18.3
[10] | -4.4 | 5.94 | -1.61 | 16.7 | 64.4
[11] | 0.7 | -2.5 | 14.2 | 32.4 | 71.7
[12] | -9.12 | -11.9 | 19.5 | 68.8 | 83
[13] | -1.97 | -1.61 | 3.93 | 27.9 | 53.1
[14] | -8.47 | -19.6 | -9.22 | 2.66 | 28.9

Conditions | drug sensitivity score
[15] | 2.81
[16] | 18
[17] | 1.21
[18] | 1.15
[19] | 7.83
[20] | 5.36
[21] | 8.33
[22] | 6.28
[23] | 0
[24] | 6.11
[25] | 8
[26] | 15.1
[27] | 6.04
[28] | 1.63

CC1(C)CCC(CN2CCN(c3ccc(C(=O)NS(=O)(=O)c4ccc(NCC5CCOCC5)c([N+](=O)[O-])c4)c(Oc4cnc5[nH]ccc5c4)c3)CC2)=C(c2ccc(Cl)cc2)C1 [Venetoclax] (max concentration tested 10000 nM)
percent inhibition of viability [%]
Conditions | [2] | [4] | [5] | [6] | [7] | [8] | [9] | [10] | [11] | [12]
1 nM | 1.21 | 27.7 | -4.77 | -4.75 | 4.6 | 5.96 | 10.4 | 3.82 | -1.92 | -13.2
10 nM | 17 | 55.8 | -0.91 | 2.95 | 3.22 | 19.3 | 48.6 | 7.84 | -1.34 | 53.6
100 nM | 36.3 | 71 | 1.35 | 18.2 | 6.71 | 45.6 | 50.4 | 10.9 | 4.44 | 87.3
1000 nM | 54.6 | 91.3 | 29.1 | 17 | 25.8 | 55.5 | 74.7 | 67.4 | 36.7 | 91.6
10000 nM | 87.8 | 98.7 | 82.5 | 66.6 | 82.6 | 85.8 | 96.6 | 88.4 | 67.1 | 91.2

Conditions | drug sensitivity score
[16] | 16.2
[18] | 33.6
[19] | 8.64
[20] | 5.65
[21] | 7.95
[22] | 18.4
[23] | 26.1
[24] | 14.1
[25] | 8.04
[26] | 34.5

Oc1ncc(N(CCCl)CCCl)c(O)n1 [Uracil mustard] (max concentration tested 10000 nM)
percent inhibition of viability [%]
Conditions | [2] | [4] | [5] | [6] | [7] | [8] | [9] | [10] | [11] | [12]
1 nM | -3.55 | -2.41 | -4.85 | -13 | -4.38 | -13 | -5.93 | -3.44 | 1.1 | 1.93
10 nM | -2.92 | -4.28 | -7.99 | 2.85 | -2.31 | -8.44 | -12.3 | -2.84 | 14.8 | 12.8
100 nM | 0.29 | 4.07 | -5.32 | -5.3 | -0.87 | 1.52 | -16.6 | -1.58 | 6.41 | 14.2
1000 nM | 1.68 | 10.1 | 0.5 | 11.1 | 8.35 | 7.38 | -20.1 | 6.78 | 7.51 | 7.77
10000 nM | -8.73 | 23.1 | 6.88 | 19.6 | 16.4 | 14.1 | -11.1 | 8.3 | 12.4 | 16.2

Conditions | drug sensitivity score
[16] | 0
[18] | 1.5
[19] | 0
[20] | 1.65
[21] | 1.03
[22] | 0.45
[23] | 0
[24] | 0
[25] | 0
[26] | 1.83
